biological target: CRISPR/Cas9 from Streptococcus pyogenes (SpyCas9) (Streptococcus pyogenes serotype M1, UniProt Q99ZW2); experiment: cell-based; conditions: not given;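 also: Cell-based reporter with a SpyCas9 target site placed in EGFP, where NHEJ repair of the cut restores the reading frame, read-out is the share of EGFP-positive cells, lowered by inhibitors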
Sequence (Q99ZW2 whole entry): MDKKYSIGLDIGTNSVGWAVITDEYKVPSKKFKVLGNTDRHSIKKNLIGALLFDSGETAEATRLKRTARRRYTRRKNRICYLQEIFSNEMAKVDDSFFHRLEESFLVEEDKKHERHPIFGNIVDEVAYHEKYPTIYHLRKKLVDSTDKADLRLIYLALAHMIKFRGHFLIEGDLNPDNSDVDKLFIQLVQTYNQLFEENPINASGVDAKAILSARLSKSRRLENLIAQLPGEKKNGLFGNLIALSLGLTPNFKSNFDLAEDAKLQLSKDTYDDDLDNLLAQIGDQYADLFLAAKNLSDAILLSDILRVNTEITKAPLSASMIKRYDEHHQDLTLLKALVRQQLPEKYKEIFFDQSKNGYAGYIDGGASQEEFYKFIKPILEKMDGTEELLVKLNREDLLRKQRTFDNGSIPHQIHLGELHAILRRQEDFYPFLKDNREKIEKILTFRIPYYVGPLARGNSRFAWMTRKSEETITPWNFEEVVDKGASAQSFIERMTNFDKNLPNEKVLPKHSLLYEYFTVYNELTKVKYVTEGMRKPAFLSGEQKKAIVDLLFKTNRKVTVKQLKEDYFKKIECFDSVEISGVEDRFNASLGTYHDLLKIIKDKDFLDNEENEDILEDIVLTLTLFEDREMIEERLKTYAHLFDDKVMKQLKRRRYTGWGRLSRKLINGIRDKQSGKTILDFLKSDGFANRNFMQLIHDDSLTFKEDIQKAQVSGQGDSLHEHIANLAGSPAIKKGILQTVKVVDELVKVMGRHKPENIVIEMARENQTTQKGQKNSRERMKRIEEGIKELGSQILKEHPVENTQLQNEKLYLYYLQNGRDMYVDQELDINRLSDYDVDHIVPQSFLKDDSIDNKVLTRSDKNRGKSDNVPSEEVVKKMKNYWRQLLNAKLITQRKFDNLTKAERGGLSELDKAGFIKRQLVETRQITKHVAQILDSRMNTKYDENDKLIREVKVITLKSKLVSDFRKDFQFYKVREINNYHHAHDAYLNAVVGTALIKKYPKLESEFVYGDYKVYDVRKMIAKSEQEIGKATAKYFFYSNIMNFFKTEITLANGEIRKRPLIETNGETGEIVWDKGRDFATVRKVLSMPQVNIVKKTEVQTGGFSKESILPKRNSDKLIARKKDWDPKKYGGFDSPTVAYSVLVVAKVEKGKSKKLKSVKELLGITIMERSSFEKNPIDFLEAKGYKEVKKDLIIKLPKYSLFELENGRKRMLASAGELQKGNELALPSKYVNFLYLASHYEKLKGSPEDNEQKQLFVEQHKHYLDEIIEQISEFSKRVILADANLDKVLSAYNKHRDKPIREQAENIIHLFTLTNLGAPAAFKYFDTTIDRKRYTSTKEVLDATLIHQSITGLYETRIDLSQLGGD

SMILES	IC50
COC(=O)/C=C/c1ccc(O)cc1 [Compound 804]	> 100 µM
CC(C)(C)OC(=O)N1CCN(S(=O)(=O)/C=C/c2ccccc2)CC1 [Compound 866]	> 100 µM
O=C(/C=C/c1cc(F)c(F)c(F)c1)c1ccccc1 [Compound 110]	10 to 100 µM
CN(c1ccccc1)S(=O)(=O)F [Compound 883]	> 100 µM
CN(C)C(=O)/C=C/c1ccccc1 [Compound 843]	> 100 µM
C/C(C=O)=C\c1ccccc1 [Compound 827]	> 100 µM
O=C(/C=C/c1ccc2c(c1)OCO2)c1ccccc1 [Compound 886]	> 100 µM
O=C1C=CCCC1 [Compound 885]	> 100 µM
CCN1C(=O)C=CC1=O [Compound 838]	> 100 µM
COc1cc(/C=C/C(=O)N2CCC=CC2=O)cc(OC)c1OC [Compound 905, Piperlongumine]	1 to 10 µM
CCOCCNC(=O)/C=C/c1ccccc1 [Compound 853]	> 100 µM
CC(C)c1ccc(OS(=O)(=O)/C=C/c2ccccc2)cc1 [Compound 878]	> 100 µM
O=C(/C=C/c1cccc(Cl)c1)c1cccc(Cl)c1 [Compound 895]	> 100 µM
O=S(F)(=Nc1ccc(Br)cc1)Oc1ccc(Br)cc1 (stereo not drawn) [Compound 881]	> 100 µM
Cc1ccc(=O)n(-c2ccccc2)c1 [Compound 836]	> 100 µM
CCOCCNS(=O)(=O)/C=C/c1ccccc1 [Compound 867]	> 100 µM
N#C/C(=C1/SC[C@@H](c2ccc(Cl)cc2Cl)S1)n1ccnc1 [Compound 835]	> 100 µM
C=C(C)C(=O)N(CC)CC [Compound 894]	> 100 µM
O=S(F)(=Nc1ccc(Br)cc1)N1CCC(Cc2ccccc2)CC1 (stereo not drawn) [Compound 882]	> 100 µM
O=C(/C=C\n1cnc(-c2cc(C(F)(F)F)cc(C(F)(F)F)c2)n1)NNc1ccccn1 [Compound 901]	1 to 10 µM
O=S(=O)(/C=C/c1ccccc1)Oc1ccc(Br)cc1 [Compound 880]	> 100 µM
NC(=O)/C(=C/n1cnc(-c2cc(C(F)(F)F)cc(C(F)(F)F)c2)n1)c1cncnc1 [Compound 904]	1 to 10 µM
O=C(O)/C=C/c1cccc(O)c1 [Compound 801]	> 100 µM

SMILES	IC50
COc1cc(-c2ncn(/C=C\C(=O)OC(C)C)n2)cc(C(F)(F)F)c1 [Compound 902]	1 to 10 µM
O=C(/C=C/c1ccccc1)N1CCCC1 [Compound 855]	> 100 µM
O=C(/C=C\n1cnc(-c2cc(C(F)(F)F)cc(C(F)(F)F)c2)n1)N1CC(F)(F)C1 [Compound 903]	1 to 10 µM
COc1ccc(C(=O)/C=C/c2ccccc2)cc1 [Compound 102]	10 to 100 µM
O=C(/C=C/c1ccccc1Br)c1ccccc1 [Compound 127]	10 to 100 µM
Cc1cccc(C2CCCN2S(=O)(=O)F)c1 (stereo not drawn) [Compound 884]	> 100 µM
COc1ccc(COCCCCC2=C3CCC(C)CC3CC2=O)cc1 (stereo not drawn) [Compound 897]	> 100 µM
O=C(/C=C/c1ccccc1)c1ccc(Cl)cc1 [Compound 105]	10 to 100 µM
CC(C)(C)OC(=O)N1CCN(C(=O)/C=C/c2ccccc2)CC1 [Compound 844]	> 100 µM
O=C(/C=C/c1ccc(O)cc1)c1ccc(O)cc1O [Compound 813]	> 100 µM
CCN(Cc1ccccc1)S(=O)(=O)/C=C/c1ccccc1 [Compound 873]	> 100 µM
CC1=CC(=O)c2c(O)cccc2C1=O [Compound 48]	1 to 10 µM
C=CC(=O)N(C)C [Compound 829]	> 100 µM
C=CS(C)(=O)=O [Compound 830]	> 100 µM
COc1cc(/C=C/c2ccc(O)cc2)cc(OC)c1 [Compound 811]	> 100 µM
O=C(/C=C/c1cccc(Br)c1)c1cccc(Br)c1 [Compound 896]	> 100 µM
CC(=O)/C=C/c1cc2c(cc1Br)OCO2 [Compound 889]	> 100 µM
O=S(=O)(/C=C/c1ccccc1)c1ccc(Cl)cc1 [Compound 893]	> 100 µM
O=S(=O)(/C=C/c1ccccc1)Oc1cccc(F)c1 [Compound 879]	> 100 µM
CC1CC(C)CN(S(=O)(=O)/C=C/c2ccccc2)C1 (stereo not drawn) [Compound 870]	> 100 µM
NS(=O)(=O)/C=C/c1ccccc1 [Compound 865]	> 100 µM
O=C1CC(c2cccc(O)c2)Oc2ccccc21 (stereo not drawn) [Compound 817]	> 100 µM
O=S(=O)(/C=C/c1ccccc1)N1CCOCC1 [Compound 864]	> 100 µM

SMILES	IC50
O=C(/C=C/c1ccccc1)N1CCN(Cc2ccccc2)CC1 [Compound 845]	> 100 µM
COc1ccc(/C=C/S(=O)(=O)c2ccc(Cl)cc2)cc1 [Compound 892]	> 100 µM
C=C(C)C(N)=O [Compound 825]	> 100 µM
O=C(/C=C/c1ccccc1)c1ccc(Br)cc1 [Compound 900]	> 100 µM
CC(=O)/C=C/c1ccccc1 [Compound 890]	> 100 µM
O=C(/C=C/c1ccccc1)NC1CC1 [Compound 854]	> 100 µM
CCN(CC)C(=O)/C=C/c1ccccc1 [Compound 842]	> 100 µM
CN(C)c1ccc(/C=C/C(=O)c2ccccc2)cc1 [Compound 887]	> 100 µM
C=CC(=O)OC [Compound 828]	> 100 µM
O=S(=O)(/C=C/c1ccccc1)N1CCN(Cc2ccccc2)CC1 [Compound 869]	> 100 µM
O=C(/C=C/c1ccccc1)N1CCOCC1 [Compound 841]	> 100 µM
O=S(=O)(/C=C/c1ccccc1)Oc1ccc(I)cc1 [Compound 877]	> 100 µM
O=C1C=CCC1 [Compound 888]	> 100 µM
CN(C(=O)/C=C/c1ccccc1)c1ccccc1 [Compound 863]	> 100 µM
COc1cc(/C=C/C(=O)CC(=O)/C=C/c2ccc(O)c(OC)c2)ccc1O [Compound 75]	10 to 100 µM
O=C(O)/C=C/c1ccc(O)cc1 [Compound 802]	> 100 µM
O=C(/C=C/c1cccc(Cl)c1)c1ccccc1 [Compound 104]	10 to 100 µM
CNC(=O)c1ccccc1Sc1ccc2c(/C=C/c3ccccn3)n[nH]c2c1 [Compound 834]	> 100 µM
O=C(/C=C/c1ccccc1)Nc1cccnc1 [Compound 862]	> 100 µM
CCN(CC)S(=O)(=O)/C=C/c1ccccc1 [Compound 868]	> 100 µM
O=C(/C=C/c1ccccc1)N1CCCCC1 [Compound 840]	> 100 µM
C=CS(=O)(=O)c1ccccc1 [Compound 32]	10 to 100 µM
O=C(/C=C/c1ccc(O)cc1)c1ccccc1 [Compound 12]	10 to 100 µM

SMILES	IC50
CN(C)C/C=C/C(=O)O [Compound 876]	> 100 µM
COc1cc(/C=C/C(=O)O)ccc1O [Compound 803]	> 100 µM
CN(C)C/C=C/C(=O)Nc1cc2c(Nc3ccc(F)c(Cl)c3)ncnc2cc1O[C@@H]1CCOC1 [Compound 833]	> 100 µM
CS(=O)(=O)/C=C/c1ccccc1 [Compound 847]	> 100 µM
CCC1(O)C(=O)OCc2c1cc1n(c2=O)Cc2cc3ccccc3nc2-1 (stereo not drawn) [Compound 874]	> 100 µM
COc1ccc(CNC(=O)/C=C/c2ccccc2)cc1 [Compound 846]	> 100 µM
O=c1c(O)c(-c2ccc(O)cc2)oc2ccccc12 [Compound 815]	> 100 µM
CSc1ccc(NC(=O)/C=C/c2ccccc2)cc1 [Compound 860]	> 100 µM
O=C(/C=C/c1ccccc1)Nc1ccc([N+](=O)[O-])cc1 [Compound 861]	> 100 µM
COc1ccc(/C=C/C(=O)c2ccccc2)cc1 [Compound 111]	10 to 100 µM
C/C(O)=C(\C#N)C(=O)Nc1ccc(C(F)(F)F)cc1 [Compound 837]	> 100 µM
COC(=O)/C=C/C(=O)OC [Compound 826]	> 100 µM
O=C(/C=C/c1ccccc1)Nc1c(F)cccc1F [Compound 859]	> 100 µM
O=Cc1cc2c(cc1C#Cc1ccccc1)OCO2 [Compound 898]	> 100 µM
O=S(=O)(/C=C/c1ccccc1)N1CCCCC1 [Compound 872]	> 100 µM
CC(C)N(C(C)C)S(=O)(=O)/C=C/c1ccccc1 [Compound 871]	> 100 µM
O=C1CC(c2ccccc2O)Oc2ccccc21 (stereo not drawn) [Compound 816]	> 100 µM
C#CCCOc1cccc(/C=C/S(=O)(=O)F)c1 [Compound 119]	1 to 10 µM
O=C(/C=C/c1ccc(Br)cc1)c1ccccc1 [Compound 101]	10 to 100 µM
NC(=O)/C=C/c1ccccc1 [Compound 851]	> 100 µM
Oc1cc(O)c2c(c1)O[C@H](c1ccc(O)c(O)c1)[C@@H](O)C2 [Compound 814]	> 100 µM
O=c1c(O)c(-c2ccc(O)c(O)c2)oc2cc(O)cc(O)c12 [Compound 850]	> 100 µM

biological target: T1, SpyCas9 (Streptococcus pyogenes serotype M1, UniProt Q99ZW2); experiment: Inhibition of plasmid-expressed SpyCas9 editing of endogenous genes in HEK293 cells, T7E1 test; type: cell-based; conditions: HEK293 cells transfected with AAVS1-AS2 and pST-Cas9 plasmids; 10 μM compound; no-drug group 22.4% and 35.1%
T1 construct: expressed in transfected cells; host or cells: HEK293
T1 sequence (Q99ZW2 whole entry, the tested form may be a part): as the sequence (Q99ZW2 whole entry) above
Description: HEK293 cells (10^5 cells/well) were seeded on a 24-well plate. 24 hours after inoculation, cells were transfected with 200 ng AAVS1-AS2 and 200 ng pST-Cas9 plasmid or 200 ng EMX1 and 200 ng pST-Cas9 plasmid in Opti-MEM medium. 6 hours after transfection, DMEM supplemented with 10% FBS and 10 μM drug (Compound 49) was used to replace Opti-MEM. The positive control for Cas9 activity was 200 ng AAVS1-AS2 and 200 ng pST-Cas9 plasmid or 200 ng EMX1 and 200 ng pST-Cas9 plasmid without drug. After the gene editing was completed, the cell genomic DNA was extracted, and the gene editing efficiency was tested by the T7E1 method (see Guschin, D. Y. et al. Methods Mol. Biol. 649, 247-256 (2010))).
The method of this example was the same as in Example 2.

SMILES	gene modification rate
CC1=CC(=O)c2c(O)cccc2C1=O [Compound 48]	0%

same assay, conditions: HEK293 cells transfected with EMX1 and pST-Cas9 plasmids; 10 μM compound; no-drug group 26.5% and 27.9%

SMILES	gene modification rate
CC1=CC(=O)c2c(O)cccc2C1=O [Compound 48]	0%
